Data published in ChEMBL document CHEMBL1159216, “Imperanene, a novel phenolic compound with platelet aggregation inhibitory activity from Imperata cylindrica” (J Nat Prod, 1995).
The source made the active and inactive calls. The calls are words filed in the database; no cut-off is given here.

Tested on: Platelet
Assay: Antiplatelet activity in Japanese white rabbit platelet assessed as inhibition of thrombin-induced platelet aggregation at 600 uM preincubated 5 mins before thrombin challenge
Format: functional, cell-based
Conditions: Oryctolagus cuniculus

## COc1cc(/C=C/[C@@H](CO)Cc2ccc(O)c(OC)c2)ccc1O
  Activity: Active
